For data set [1], the target named is T1, human recombinant D1 receptor (Homo sapiens, UniProt P21728).
T1 construct: expressed in transfected cells; host or cells: HEK293
Kind of data set: D1 antagonistic activity test (LANCE cAMP, antagonism of dopamine-induced cAMP production in HEK293 cells). The format is cell-based. To be noted: HEK293 cells expressing human recombinant D1 receptor; test concentration 0.1 nM to 10000 nM; read-out: D1 Antagonistic Activity (IC50, nmol/L). The method, then:
• 1) D1 antagonistic activity test
The D1 antagonism of the compound was evaluated by testing the antagonistic action of the compounds against dopamine on the induction of cAMP production in HEK293 cells. The cAMP concentration test was performed according to the method described in the kit instructions. The test concentration of the compound was 0.1 nM to 10000 nM. SCH23390 was used as a positive control. The IC50 was calculated by Excelfit software.

In data set [2] the target is T2, human recombinant D2 receptor (Homo sapiens, UniProt P14416).
T2 construct: expressed in transfected cells; host or cells: HEK293
Kind of data set: D2 antagonistic activity test (LANCE cAMP, antagonism of dopamine inhibition of cAMP production in HEK293 cells). The format is cell-based. To be noted: HEK293 cells expressing human recombinant D2 receptor; test concentration 0.1 nM to 10000 nM; read-out: D2 Antagonistic Activity (IC50, nmol/L). The method, then: LANCE™ cAMP 384 Kit (PerkinElmer, USA) was used to test the antagonism of the compound against the D1 receptor using the HEK293 cells expressing human recombinant D1 receptor. The D1 antagonism of the compound was evaluated by testing the antagonistic action of the compounds against dopamine on the induction of cAMP production in HEK293 cells. The cAMP concentration test was performed according to the method described in the kit instructions. The test concentration of the compound was 0.1 nM to 10000 nM. SCH23390 was used as a positive control. The IC50 was calculated by Excelfit software. The test results of some compounds were shown in Table 1. • 2) D2 antagonistic activity test LANCE™ cAMP 384 Kit (PerkinElmer, USA) was used to test the antagonism of the compound against the D2 receptor using the HEK293 cells expressing human recombinant D2 receptor. The D2 antagonism of the compound was evaluated by testing the antagonistic action of the compounds against dopamine on the inhibition of cAMP production in HEK293 cells. The cAMP concentration test was performed according to the method described in the kit instructions. The test concentration of the compound was 0.1 nM to 10000 nM. Risperidone was used as a positive control. The IC50 was calculated by Excelfit software. The test results of some compounds were shown in Table 1 (ND means the test was not performed).
Background: TR-FRET usually uses a lanthanide donor and a delayed reading to cut background.

Data set [3] relates to insomnia induced by injection with 4-Chlorophenylalanine (PCPA) in rats. The experiment in a line: Sedative and hypnotic effects, PCPA-induced insomnia model in rats treated with sodium pentobarbital. To be noted: for sleep time: FIG. 2. The format is in vivo, Wistar rats. The method, then: The sedative and hypnotic effects of Example 60 were evaluated using a model of insomnia induced by injection with 4-Chlorophenylalanine (PCPA) in rats.
Dosage and method of administration: PCPA was administered at a dose of 150 mg/kg. […] was administered by a single intraperitoneal injection at 72 hours before the experiment in all Wistar rats. The diazepam group (DI) was administered at a dose of 2 mg/kg and 4 mg/kg, a single intraperitoneal injection; the test drug group was administered at a dose of 1 mg/kg and 3 mg/kg, a single intragastric administration; sodium pentobarbital was administered at a dose of 25 mg/kg, a single intraperitoneal injection. The administration volume was 10 ml/kg. On the day of the test, the model group was given sodium pentobarbital 30 minutes after the same volume of physiological saline was given; the DI group was given sodium pentobarbital 30 minutes after DI was administered; the test drug group was given sodium pentobarbital 60 minutes after the drug was administered.lndex observation: After the administration of sodium pentobarbital, the rats' response was closely observed. The time from the administration to 1 minute after the righting reflex disappeared is the sleep latency. The time from 1 minute after the righting reflex disappeared to the point that the righting reflex returned is sleep time.

Data set [4] deals with PCP-induced high spontaneous activity in mice. Kind of data set: PCP-induced high spontaneous activity test in mice. Format: in vivo, Male ICR mice. To be noted: for Effective Dose: dose by gavage that significantly reduces PCP (7 mg/kg ip) induced high spontaneous activity of mice vs model group. The method, then: PCP (phencylidine) was dissolved in physiological saline to prepare a 7 mg/kg solution. The test compound was formulated with a 0.5% CMC-Na solution to a solution with suitable concentration, ready-to-use. Male ICR mice were 18-22 g. Mice were randomly divided into a solvent control group, a model control group, a positive control group, and each test drug group during the test. There were 8 mice in each group. Mice in each group were given each test drug by gavage. 45 minutes after the test drug was administered, mice were injected with a PCP (7 mg/kg) solution intraperitoneally. The spontaneous, open field video analysis system was used to record the mouse movement trajectory within 45 min after administration of test drug or saline, and then the mouse movement trajectory within 75 min after PCP administration. Spontaneous, open field video analysis system was used to analyze the mouse's movement trajectory, and the total distance of the movement of the mice in each group was counted. The result was expressed as mean±SD. Results were analyzed by one-way analysis of variance.

The nature of data set [5]: Metabolism of l-stepholidine (statement only, no method).
For data set [6], the target named is T3, human recombinant 5-HT1A receptor (Homo sapiens, UniProt P08908).
T3 construct: expressed in transfected cells; host or cells: HEK293
T3 sequence (P08908 1-422): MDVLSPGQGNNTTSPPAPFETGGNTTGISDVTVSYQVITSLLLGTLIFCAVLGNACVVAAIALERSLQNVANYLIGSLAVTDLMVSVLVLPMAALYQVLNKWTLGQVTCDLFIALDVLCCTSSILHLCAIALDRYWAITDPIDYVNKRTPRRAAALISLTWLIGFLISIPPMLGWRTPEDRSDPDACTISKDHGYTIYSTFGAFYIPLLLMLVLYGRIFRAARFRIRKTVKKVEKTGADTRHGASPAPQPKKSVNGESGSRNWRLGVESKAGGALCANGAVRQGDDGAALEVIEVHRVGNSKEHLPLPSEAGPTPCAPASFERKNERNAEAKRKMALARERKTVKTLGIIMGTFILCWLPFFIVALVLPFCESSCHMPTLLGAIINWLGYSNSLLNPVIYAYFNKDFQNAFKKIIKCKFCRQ
The experiment in a line: 5-HT1A agonistic activity test (LANCE cAMP, inhibition of cAMP production in HEK293 cells). Format: cell-based. To be noted: HEK293 cells expressing human recombinant 5-HT1A receptor; test concentration 0.1 nM to 10000 nM; read-out: 5-HT1A Agonistic Activity (EC50, nmol/L). How it is done:
• 3) 5-HT1A agonistic activity test
LANCE™ cAMP 384 Kit (PerkinElmer, USA) was used to test the agonistic effect of the compound on 5-HT1A receptor using the HEK293 cells expressing human recombinant 5-HT1A receptor. The 5-HT1A agonistic effect of the compound was evaluated by testing the inhibitory effect of the compound on cAMP production in HEK293 cells. The cAMP concentration test was performed according to the method described in the kit instructions. The test concentration of the compound was 0.1 nM to 10000 nM. 8-OH-DPAT was used as a positive control. The EC50 was calculated by Excelfit software.

T2 sequence (P14416 whole entry): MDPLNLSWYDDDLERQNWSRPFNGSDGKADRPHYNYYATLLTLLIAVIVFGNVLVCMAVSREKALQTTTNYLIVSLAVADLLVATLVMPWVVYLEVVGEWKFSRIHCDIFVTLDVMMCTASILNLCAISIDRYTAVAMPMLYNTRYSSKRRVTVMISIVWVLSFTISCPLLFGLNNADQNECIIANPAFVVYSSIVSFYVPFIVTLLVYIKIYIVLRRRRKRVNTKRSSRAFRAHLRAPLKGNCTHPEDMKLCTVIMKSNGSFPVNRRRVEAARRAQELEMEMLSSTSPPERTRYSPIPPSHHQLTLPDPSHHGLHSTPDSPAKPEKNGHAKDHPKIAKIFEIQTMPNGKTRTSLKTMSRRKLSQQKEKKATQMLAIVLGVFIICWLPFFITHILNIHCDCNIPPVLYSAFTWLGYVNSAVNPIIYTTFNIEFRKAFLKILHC
T1 sequence (P21728 whole entry): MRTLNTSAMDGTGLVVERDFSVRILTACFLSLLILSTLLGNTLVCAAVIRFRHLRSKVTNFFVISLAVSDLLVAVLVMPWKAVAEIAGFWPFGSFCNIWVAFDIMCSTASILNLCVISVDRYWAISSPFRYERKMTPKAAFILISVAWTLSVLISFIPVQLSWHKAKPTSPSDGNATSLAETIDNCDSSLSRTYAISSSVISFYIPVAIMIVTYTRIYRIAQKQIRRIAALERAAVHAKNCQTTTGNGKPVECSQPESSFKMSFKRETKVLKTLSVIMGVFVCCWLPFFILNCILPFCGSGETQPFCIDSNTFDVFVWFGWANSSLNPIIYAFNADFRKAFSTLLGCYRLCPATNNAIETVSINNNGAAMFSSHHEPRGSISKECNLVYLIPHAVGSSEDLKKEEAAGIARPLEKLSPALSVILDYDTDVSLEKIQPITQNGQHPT

On to `COc1cc2c(cc1NS(C)(=O)=O)[C@@H]1Cc3ccc(OC)c(OC)c3CN1CC2` [Example 60, (S)-2-methanesulfonylamino-3,9,10-trimethoxy-6,8,13,13a-tetrahydro-5H-dibenzo[a,g] quinolizine], for which the results for the IC50 in data set [1] and in data set [2] were 525 nmol/L and 6.2 nmol/L, respectively. In addition, the sleep time entry in data set [3] (1 mg/kg single intragastric administration, sodium pentobarbital 25 mg/kg ip 60 minutes later) is recorded as “significantly prolong”; in data set [3] (3 mg/kg single intragastric administration, sodium pentobarbital 25 mg/kg ip 60 minutes later), “prolong”. Moreover, the sleep latency result in data set [3] (3 mg/kg single intragastric administration, sodium pentobarbital 25 mg/kg ip 60 minutes later, FIG. 1, *P<0.05 vs model group) is “significantly reduce”. In data set [3] (PCPA-induced insomnia rats, 1 and 3 mg/kg intragastric), the “hypnotic effect (overall)” value was “good hypnotic effect”.

As to `COc1cc2c(cc1O)[C@@H]1Cc3ccc(O)c(OC)c3CN1CC2` [l-SPD, L-Stepholidine, reference compound], the IC50 in data set [1] is 7.7 nmol/L; in data set [2], 37 nmol/L. Further, in data set [4] (oral, PCP-induced high spontaneous activity in mice), the “duration of effect / efficacy” value was “short duration of effect”. The metabolism entry in data set [5] was “fast metabolism”.

Turning to `COc1cc2c(cc1C(N)=O)[C@@H]1Cc3ccc(OC)c(OC)c3CN1CC2` [Example 5, (S)-2-carbamoyl-3,9,10-trimethoxy-6,8,13,13a-tetrahydro-5H-dibenzo [a,g] quinolizine], the EC50 in data set [6] is 450 nmol/L. The IC50 in data set [1] was 170 nmol/L; in data set [2], 35 nmol/L. In data set [4], the “Effective Dose” value worked out at 10 mg/kg.

As to `COc1cc2c(cc1CNC(C)=O)[C@@H]1Cc3ccc(OC)c(OC)c3CN1CC2` [Example 11, (S)-2-acetaminomethyl-3,9,10-trimethoxy-6,8,13,13a-tetrahydro-5H-dibenzo[a,g] quinolizine], the EC50 in data set [6] amounted to 1700 nmol/L. Moreover, the figures for the IC50 in data set [1] and in data set [2] were 500 nmol/L and 750 nmol/L, respectively. Moreover, the “Effective Dose” value in data set [4] was 10 mg/kg.

The values above are taken from patent US11731965B2, “Tetrahydroprotoberberine compound, preparation method therefor and uses thereof, and pharmaceutical composition” (SHANGHAI INSTITUTE OF MATERIA MEDICA, CHINESE ACADEMY OF …, priority 2017, dated 2023).
